Among the test systems are HCT-15 colon; UACC-257 melanoma; SNB-19 CNS; OVCAR-4 ovarian; SN12C renal; LOX IMVI melanoma; IGROV1 ovarian; UO-31 renal; A549 NSCLC; MDA-MB-231 breast.
Holding throughout (experiment): inhibition of tumour cell growth, NCI panel, 48 h

Each structure is given as a SMILES string.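 Following 48 hours of exposure in 96-well plates, responses at five concentrations were used to interpolate endpoints linearly. Abbreviation: GI50, concentration required for 50% inhibition of growth. TGI is the concentration that stops growth completely.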

Regarding `CC(Nc1ccc(S(=O)(=O)N=C(N)N)cc1)c1c2ccccc2nc2ccccc12` (stereo unspecified), the TGI in the test with HCT-15 colon is over 100 µM; in the test on UACC-257 melanoma, 97.6 µM; in the test on SNB-19 CNS, over 100 µM; in the test with OVCAR-4 ovarian it was 31.3 µM; in the test with SN12C renal, over 100 µM; in the test with LOX IMVI melanoma, over 100 µM. The TGI with IGROV1 ovarian is over 100 µM; in the test with UO-31 renal it was 65.6 µM; with A549 NSCLC it was over 100 µM.

Turning to `COC(=O)c1cccn1C(=O)n1cccc1`, the TGI in the test on UACC-257 melanoma, in the test on SNB-19 CNS, in the test on OVCAR-4 ovarian, in the test with SN12C renal, in the test with LOX IMVI melanoma and with IGROV1 ovarian was over 100 µM throughout. In addition, the TGI in the test on UO-31 renal and with A549 NSCLC was over 100 µM each time.

As to `O=c1c(Br)cc2nc3ccccc3sc-2c1Br`, the TGI in the test on HCT-15 colon is over 100 µM; with UACC-257 melanoma, over 85.4 µM; in the test with SNB-19 CNS, over 100 µM; in the test on OVCAR-4 ovarian it was over 70.9 µM; in the test on SN12C renal, over 100 µM; with LOX IMVI melanoma, over 100 µM. Also, the TGI in the test on IGROV1 ovarian, in the test with UO-31 renal and in the test on A549 NSCLC was over 100 µM throughout.

With `CC(C)(C)c1cc(-n2c(-c3ccc(Cl)cc3)nc3cc(C(=O)Nc4ccc(Cl)cc4)ccc32)n[nH]1`, the GI50 is 23.7 µM with MDA-MB-231 breast; 7.92 µM in the test on UACC-257 melanoma; 4.1 µM with SNB-19 CNS; 6.11 µM in the test with OVCAR-4 ovarian; 5.82 µM in the test with SN12C renal; 5.65 µM in the test with IGROV1 ovarian. Moreover, the GI50 in the test on UO-31 renal was 2.69 µM; in the test with A549 NSCLC, 3.71 µM. Also, the TGI in the test on MDA-MB-231 breast, with UACC-257 melanoma, with SNB-19 CNS, in the test on OVCAR-4 ovarian, in the test with SN12C renal and with IGROV1 ovarian was over 100 µM throughout. Also, the TGI in the test with UO-31 renal and in the test on A549 NSCLC was over 100 µM throughout.

As for `CCOC(=O)N1CCC(=O)C(CNC23CC4CC(CC(C4)C2)C3)C1` (stereo unspecified), the TGI was 42.4 µM in the test on UACC-257 melanoma; over 100 µM with SNB-19 CNS; 29 µM in the test on OVCAR-4 ovarian; over 100 µM with SN12C renal; 41.5 µM in the test on LOX IMVI melanoma; over 100 µM with UO-31 renal. Besides, the TGI in the test on A549 NSCLC was over 100 µM.

Consider `Cc1ccc(NC(=O)CC2Sc3ccccc3NC2=O)c(C)c1` (stereo unspecified), for which the TGI in the test with UACC-257 melanoma is 39.7 µM; in the test with SNB-19 CNS, 30.3 µM; with OVCAR-4 ovarian it was 48.1 µM; in the test with SN12C renal, over 100 µM; in the test on LOX IMVI melanoma it was over 100 µM; in the test on IGROV1 ovarian it was over 100 µM. The TGI in the test on UO-31 renal is 34.8 µM; in the test with A549 NSCLC it was 39.7 µM.

Take `COC(=O)C(C(=O)C(=O)Nc1ccc([N+](=O)[O-])cc1[N+](=O)[O-])c1nc2ccc(Cl)cc2[nH]c1=O` (stereo unspecified): the TGI in the test with HCT-15 colon, in the test with UACC-257 melanoma, in the test on SNB-19 CNS, with OVCAR-4 ovarian, in the test with SN12C renal and in the test on LOX IMVI melanoma was over 100 µM each time. Further, the TGI with IGROV1 ovarian, in the test with UO-31 renal and in the test on A549 NSCLC was over 100 µM each time.

Consider `O=C(Nc1ccc(Cl)c(Cl)c1)Nc1c(Oc2ccc(Cl)c(Cl)c2)ccc(Cl)c1S(=O)(=O)O`, for which the GI50 in the test on MDA-MB-231 breast was 1.98 µM; with SNB-19 CNS, 3.42 µM; with SN12C renal, 4.48 µM; with LOX IMVI melanoma, 1.96 µM; in the test on UO-31 renal it was 3.13 µM; in the test with A549 NSCLC it was 3.53 µM. For the same compound, the TGI in the test with MDA-MB-231 breast was 66.8 µM; in the test on SNB-19 CNS, over 100 µM; in the test on SN12C renal, over 100 µM; with LOX IMVI melanoma it was over 100 µM; in the test with UO-31 renal it was over 100 µM; with A549 NSCLC, over 100 µM.

In the case of `Cc1ccc(S(=O)(=O)NC2(C=O)CCCC3CCCCC32)cc1` (stereo unspecified), the TGI with HCT-15 colon, in the test with UACC-257 melanoma, with SNB-19 CNS, in the test with OVCAR-4 ovarian, in the test on SN12C renal and in the test with IGROV1 ovarian was over 100 µM each time. In addition, the TGI with UO-31 renal and in the test with A549 NSCLC was over 100 µM throughout.

`CCC[CH2][Sn]1([CH2]CCC)[O]CC(CN(C)Cc2ccccc2)[O]1` (stereo unspecified): the GI50 in the test on HCT-15 colon is 8.29 µM; in the test with UACC-257 melanoma, 7.85 µM; with SNB-19 CNS it was 12.6 µM; with OVCAR-4 ovarian, 10.7 µM; with SN12C renal, 10.1 µM; with LOX IMVI melanoma, 4.12 µM. Moreover, the GI50 with IGROV1 ovarian was 14.8 µM; in the test with UO-31 renal, 12.2 µM; in the test on A549 NSCLC it was 19.6 µM. The TGI amounted to 20.3 µM with HCT-15 colon; 20.2 µM in the test on UACC-257 melanoma; 25.2 µM with SNB-19 CNS; 23 µM in the test on OVCAR-4 ovarian; 21.9 µM with SN12C renal; 16.2 µM in the test with LOX IMVI melanoma. For the same compound, the TGI is 30.5 µM in the test on IGROV1 ovarian, 24.7 µM with UO-31 renal and 38.6 µM with A549 NSCLC.

`CO/N=C(\C)c1ccc(Nc2cc(-c3ccccc3)nc3ccc(OC)cc23)cc1`: the GI50 with MDA-MB-231 breast is 1.23 µM; with HCT-15 colon, 3.17 µM; with UACC-257 melanoma it was 4.64 µM; in the test on SNB-19 CNS, 5.97 µM; with OVCAR-4 ovarian, 7.81 µM; in the test on SN12C renal, 1.7 µM. Besides, the values for the GI50 with IGROV1 ovarian, with UO-31 renal and with A549 NSCLC were 4.56 µM, 5.19 µM and 4.28 µM, respectively. Further, the TGI in the test on MDA-MB-231 breast is 3.24 µM; in the test with HCT-15 colon, 11 µM; in the test with UACC-257 melanoma, over 100 µM; with SNB-19 CNS it was over 100 µM; in the test on OVCAR-4 ovarian, over 100 µM; with SN12C renal, 4.11 µM. Moreover, the results for the TGI with IGROV1 ovarian, in the test with UO-31 renal and with A549 NSCLC were over 100 µM, over 100 µM and 70.2 µM, respectively.

With `O=c1ncc(F)cn1C1OC(CO)C(O)C1O` (stereo unspecified), the TGI in the test on HCT-15 colon was over 100 µM; in the test with UACC-257 melanoma, over 55.3 µM; in the test on SNB-19 CNS, over 69 µM; with OVCAR-4 ovarian, over 100 µM; in the test with SN12C renal it was over 60.4 µM; in the test with LOX IMVI melanoma, over 59.8 µM. Besides, the results for the TGI in the test with IGROV1 ovarian, with UO-31 renal and with A549 NSCLC were over 80 µM, over 100 µM and over 100 µM, respectively.
